Reference: US11185100B2 (priority 2014, dated 2021)
Several values for one entry are separate records, joined by “and”; a condition that tells them apart may be missing. Equal values may be shown once. Where a name gives a salt, the structure may show the parent alone.

What was measured:
Type in all cases: cell-based, cat
[1] = biological target: T1, T1R1/T1R3 receptor (Felis catus, UniProt E3UMS2); assay: Agonist screening of transmembrane compounds on T1R1/T1R3 in HEK293 cells (Example 8); conditions: for T1R1/T1R3 agonist: transmembrane compound tested at 0.01, 0.1 and 1 mM, HEK293 cells expressing T1R1/T1R3, calcium readout
Description: (§1) Agonist Screening Method: HEK293 cells that stably express T1R3 and inducibly express T1R1 were exposed to a transmembrane compound. Activation of the T1R1/T1R3 receptor was detected by a change in intracellular calcium levels using a calcium sensitive fluorescent dye and/or a luminescent reporter system. […] A FLIPR® Tetra or a FlexStation® 3 was used for data capture.
Each transmembrane compound was tested at concentrations of 0.01 mM, 0.1 mM, and 1 mM. […] To generate the dose response curves, the transmembrane compound was tested at concentrations of between 0.0001 mM and 1.0 mM in the presence of GMP and Ala.

[2] = biological target: T1, T1R1/T1R3 receptor; assay: Activation of T1R1/T1R3 receptor by transmembrane compounds and nucleotide derivatives, conducted as in Examples 1, 2 and 5 (Example 7)
Excerpt: (§2) Methods: HEK293 cells that stably express T1R3 and inducibly express T1R1 were exposed to nucleotide derivatives alone to activate the umami receptor. Activation of the T1R1/T1R3 receptor was detected by a change in intracellular calcium levels using a calcium sensitive fluorescent dye. Cells that express T1R3 but not T1R1 were used as a control. A FLIPR® Tetra or a FlexStation® 3 was used for data capture.
as §2, with “alone or in combination with one or more amino acids and/or one or more nucleotides” for “alone”, “dye and/or a luminescent reporter system.” for “dye.”
as §2, with “transmembrane compounds” for “nucleotide derivatives”, “alone or in combination with one or more amino acids and/or one or more nucleotides” for “alone”
In each experiment, serial dilutions of up to 10 mM of the transmembrane compound were added to the T1R1/T1R3-expressing cells.

[3] = biological target: T1, T1R1/T1R3 receptor; assay: PAM screening of transmembrane compounds with GMP and Ala on T1R1/T1R3 in HEK293 cells (Example 8); conditions: for T1R1/T1R3 PAM: transmembrane compound at 0.01, 0.1 and 1 mM with GMP + Ala mixtures (T1-T4), PAM if response greater than sum of compound alone and GMP+Ala alone
Excerpt: as §1, with “PAM” for “Agonist”, “to” for “to a”, “compound alone or in combination with Ala and GMP to activate the umami receptor.” for “compound.”
Dose response curves were generated for each transmembrane compound at concentrations of 0 (buffer only), 0.01, 0.1 and 1 mM, wherein each of the three concentrations of transmembrane compound was tested in combination with 0.03 mM GMP+100 mM Ala (T1); 0.6 mM GMP+10 mM Ala (T2); 0.1 mM GMP+60 mM Ala (T3) and 0.3 mM GMP+60 mM Ala (T4). The T4 mixture was also tested in a 2-fold dilution series (the T4(X) Concentration). In these experiments, the first test concentration was 2× (2 times) the T4 concentration. The subsequent test concentrations were 2-fold dilutions from that (1×, 0.5× etc.). This dilution series was tested with or without the addition of the test compound at a constant 0.3 mM concentration.
Activation of the umami receptor was also determined in the presence of 1 mM GMP+100 mM Ala to generate a “maximum” umami receptor activation level.

[4] = biological target: T1, T1R1/T1R3 receptor; assay: Activation of T1R1/T1R3 receptor by transmembrane compounds alone or with alanine, IMP, GMP, phenylalanine; HEK293 cells, calcium fluorescence (Example 5)
Method in brief: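 HEK293 cells stably expressing feline T1R3 with inducible T1R1 treated with serial dilutions (up to 10 mM) of transmembrane compounds, alone or combined with amino acids and/or nucleotides. Activation read as intracellular calcium change via calcium-sensitive fluorescent dye; T1R3-only cells served as control.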

SMILES | T1R1/T1R3 agonist [1] | T1R1/T1R3 PAM [3] | also measured
COC(=O)[C@H](Cc1ccccc1)NCc1ccccc1 [N-Benzyl-L-phenylalanine methyl ester] |  |  | agonist profile assessment (activation of T1R1/T1R3 by the compound alone) [1]: agonist; Max resp ΔF/F +Alanine (20 mM) [2]: 1.8725 ΔF/F; Thres +Alanine (20 mM) [2]: 0.01 mM; Max resp % of Ala +IMP (0.2 mM) ([2]; +IMP (0.2 mM)): 289.4 % of Ala; Max resp ΔF/F +IMP (0.2 mM) ([2]; +IMP (0.2 mM)): 2.2500 ΔF/F; Thres +IMP (0.2 mM) ([2]; +IMP (0.2 mM)): 0.003 mM; Max resp % of IMP +Alanine (20 mM) ([2]; hek293 cells): 273.4 % of IMP; Activity ([2]; modulation of T1R1/T1R3): active; PAM profile assessment (activation of T1R1/T1R3 in the presence of GMP and Alanine) [3]: PAM activity
O=C(CN1C(=O)C(=O)N(Cc2ccccc2)C1=O)c1ccc2c(c1)CCC2 [Formula 2, 1-benzyl-3-(2-(2,3-dihydro-1H-inden-5-yl)-2-oxoethyl)imidazolidine-2,4,5-trione] | No | No | 
COc1ccccc1C(=O)CN1C(=O)C(=O)N(Cc2cccs2)C1=O [Formula 10, 1-(2-(2-methoxyphenyl)-2-oxoethyl)-3-(thiophen-2-ylmethyl)imidazolidine-2,4,5-trione] | No | No | 
Cl.N[C@@H](Cc1ccccc1)C(=O)OCc1ccccc1 [L-Phenylalanine benzyl ester hydrochloride] |  |  | agonist profile assessment (activation of T1R1/T1R3 by the compound alone) [1]: agonist; PAM profile assessment (activation of T1R1/T1R3 in the presence of GMP and Alanine) [3]: PAM activity
O=C(CN1C(=O)C(=O)N(Cc2ccccc2)C1=O)c1ccc2c(c1)OCCO2 [Formula 4, 1-benzyl-3-(2-(2,3-dihydrobenzo[b][1,4]dioxin-6-yl)-2-oxoethyl)imidazolidine-2,4,5-trione] | No | No | 
O=C1CC(=O)N(Cc2ccccc2)C(=O)N1Cc1ccccc1 [Formula 24, 1,3-dibenzylpyrimidine-2,4,6(1H,3H,5H)-trione] | Yes | No | 
O=C(O)[C@H](Cc1ccc(O)cc1)NCc1ccccc1 [Formula 22, N-Benzyl-L-Tyrosine] | No | No | 
CCCC(CCC)NC(=O)c1ccc2c(c1)OCO2 [N-(heptan-4-yl)benzo[d][1,3]dioxole-5-carboxamide] |  |  | agonist profile assessment (activation of T1R1/T1R3 by the compound alone) [1]: agonist; PAM profile assessment (activation of T1R1/T1R3 in the presence of GMP and Alanine) [3]: PAM activity; +Alanine (20 mM) Max resp % of IMP ([4]; +Alanine (20 mM)): 142.7 % of IMP and 118.2 % of IMP; +Alanine (20 mM) Max resp ΔF/F ([4]; +Alanine (20 mM)): 1.7725 ΔF/F and 1.2 ΔF/F; Max resp % of IMP +Alanine (20 mM) ([4]; +Alanine (20 mM), relative to IMP): 118.2% and 142.7%; +IMP (0.2 mM) Max resp % of Ala ([4]; +IMP (0.2 mM)): 119.6 % of Ala and 165.8 % of Ala; +IMP (0.2 mM) Max resp ΔF/F ([4]; +IMP (0.2 mM)): 1.4725 ΔF/F; Max resp ΔF/F +IMP (0.2 mM) ([4]; +IMP (0.2 mM)): 1.393 ΔF/F and 1.473 ΔF/F; Max resp % of Ala +IMP (0.2 mM) ([4]; +IMP (0.2 mM), relative to Ala): 165.8% and 119.6%; Activity ([4]; Table 18, all transmembrane compounds tested, active / N/A (not active)): active; ΔF/F0 of ternary mixture with phenylalanine and GMP compared to phenylalanine and GMP without the agonist ([4]; with phenylalanine and GMP): approximately 10 ×
CCCC(CCC)NC(=O)c1ccc2c(c1)OCO2 [Formula 14, N-(heptan-4-yl)benzo[d][1,3]dioxole-5-carboxamide] | Yes | Yes | 
O=C(CN1C(=O)C(=O)N(Cc2ccccc2)C1=O)c1ccccc1 [Formula 1, 1-benzyl-3-(2-oxo-2-phenylethyl)imidazolidine-2,4,5-trione] | No | No | 
N[C@@H](Cc1ccc(O)cc1)C(=O)OCc1ccccc1 [Formula 21, L-Tyrosine benzyl ester] | No | No | 
COC(=O)C(NCc1ccccc1)c1ccccc1 (stereo not drawn) [Formula 19, Methyl-2-benzylamino-2-phenylacetate] | Yes | Yes | 
COC(=O)[C@H](Cc1ccccc1)NCc1ccccc1 [Formula 15, N-Benzyl-L-phenylalanine methyl ester hydrochloride] | Yes | Yes | 
COC(=O)C(NCc1ccccc1)c1ccccc1 (stereo not drawn) [Methyl-2-benzylamino-2-phenylacetate] |  |  | agonist profile assessment (activation of T1R1/T1R3 by the compound alone) [1]: agonist; PAM profile assessment (activation of T1R1/T1R3 in the presence of GMP and Alanine) [3]: PAM activity
Cc1ccc(CNC(Cc2ccccc2)C(=O)O)cc1 (stereo not drawn) [Formula 23, 2-((4-methylbenzyl)amino)-3-phenylpropanoic acid] | No | No | 
O=C(CN1C(=O)C(=O)N(CCc2cccs2)C1=O)c1ccccc1 [Formula 6, 1-(2-oxo-2-phenylethyl)-3-(2-(thiophen-2-yl)ethyl)imidazolidine-2,4,5-trione] | No | No | 
O=C(CN1C(=O)C(=O)N(Cc2ccccc2)C1=O)c1ccc(Cl)s1 [Formula 12, 1-benzyl-3-(2-(5-chlorothiophen-2-yl)-2-oxoethyl)imidazolidine-2,4,5-trione] | No | Weak PAM | 
O=C(CN1C(=O)C(=O)N(Cc2ccccc2)C1=O)c1ccc2c(c1)OCCCO2 [Formula 8, 1-benzyl-3-(2-(3,4-dihydro-2H-benzo[b][1,4]dioxepin-7-yl)-2-oxoethyl)imidazolidine-2,4,5-trione] | No | Weak PAM | 
O=C(CN1C(=O)C(=O)N(CCc2cccs2)C1=O)c1ccc2c(c1)OCO2 [Formula 7, 1-(2-(benzo[d][1,3]dioxol-5-yl)-2-oxoethyl)-3-(2-(thiophen-2-yl)ethyl)imidazolidine-2,4,5-trione] | No | No | 
COC(=O)[C@@H](Cc1ccccc1)NCc1ccccc1.Cl [Formula 16, N-Benzyl-D-Phenylalanine methyl ester hydrochloride] | Yes | Yes | 
COc1ccc(C(=O)CN2C(=O)C(=O)N(Cc3ccccc3)C2=O)c(OC)c1 [Formula 5, 1-benzyl-3-(2-(2,4-dimethoxyphenyl)-2-oxoethyl)imidazolidine-2,4,5-trione] | No | No | 
COC(=O)[C@H](CC(C)C)NCc1ccccc1.Cl [Formula 18, Benzyl-L-leucine methyl ester hydrochloride] | Yes | Yes | 
O=C(CN1C(=O)C(=O)N(CCc2cccs2)C1=O)c1cccc2ccccc12 [Formula 11, 1-(2-(naphthalen-1-yl)-2-oxoethyl)-3-(2-(thiophen-2-yl)ethyl)imidazolidine-2,4,5-trione] | No | No | 
O=C1C(=O)N(Cc2ccccc2)C(=S)N1Cc1ccccc1 [Formula 13, 1,3-dibenzyl-2-thioxoimidazolidine-4,5-dione] | No | No | 
COC(=O)[C@H](CC(C)C)NCc1ccccc1.Cl [Benzyl-L-leucine methyl ester hydrochloride] |  |  | agonist profile assessment (activation of T1R1/T1R3 by the compound alone) [1]: agonist; PAM profile assessment (activation of T1R1/T1R3 in the presence of GMP and Alanine) [3]: PAM activity
